Experimental data as given in patent US9089572B2, “Inhibitors of p97” (California Institute of Technology, priority 2008, dated 2015).

Tests used:
[1] = test system: MRC5-WT; assay: CellTiter-Glo growth inhibition, parental MRC5 cells; type: cell-based; conditions: Homo sapiens, 48 h at 37° C., read-out: Cell line inhibition of growth GI50 MRC5-WT
[2] = test system: MRC5-SV40; assay: CellTiter-Glo growth inhibition, MRC5 cells engineered to express SV40; type: cell-based
[3] = test system: Molt4; assay: MTT cell growth assay, Molt4; type: cell-based; conditions: Homo sapiens, MOLT-4, 48 or 72 h, read-out: Cell line inhibition of growth GI50 Molt4
Protocol: (§1) To probe further the effect of compound 2 and related compounds 1, 3, 5, 6 and 7, various concentrations of these compounds were added to 13 different cell lines and incubated for 48 or 72 h. An MTT assay was then performed to evaluate cell growth and survival.

[4] = test system: HTC116 WT; assay: MTT cell growth assay, HTC116 WT; type: cell-based; conditions: 48 or 72 h, read-out: Cell line inhibition of growth GI50 HTC116 WT
Protocol: as §1

[5] = molecular target: wild type murine p97 (Mus musculus, UniProt Q01853); assay: In vitro ATP hydrolysis (malachite green ATPase assay), wild type murine p97; type: biochemical; conditions: 200 nM p97, 20 min preincubation at 23° C., malachite green; read-out: In vitro ATP Hydrolysis Activity IC50 WT-mP97
Chain of wild type murine p97 (Q01853 whole entry): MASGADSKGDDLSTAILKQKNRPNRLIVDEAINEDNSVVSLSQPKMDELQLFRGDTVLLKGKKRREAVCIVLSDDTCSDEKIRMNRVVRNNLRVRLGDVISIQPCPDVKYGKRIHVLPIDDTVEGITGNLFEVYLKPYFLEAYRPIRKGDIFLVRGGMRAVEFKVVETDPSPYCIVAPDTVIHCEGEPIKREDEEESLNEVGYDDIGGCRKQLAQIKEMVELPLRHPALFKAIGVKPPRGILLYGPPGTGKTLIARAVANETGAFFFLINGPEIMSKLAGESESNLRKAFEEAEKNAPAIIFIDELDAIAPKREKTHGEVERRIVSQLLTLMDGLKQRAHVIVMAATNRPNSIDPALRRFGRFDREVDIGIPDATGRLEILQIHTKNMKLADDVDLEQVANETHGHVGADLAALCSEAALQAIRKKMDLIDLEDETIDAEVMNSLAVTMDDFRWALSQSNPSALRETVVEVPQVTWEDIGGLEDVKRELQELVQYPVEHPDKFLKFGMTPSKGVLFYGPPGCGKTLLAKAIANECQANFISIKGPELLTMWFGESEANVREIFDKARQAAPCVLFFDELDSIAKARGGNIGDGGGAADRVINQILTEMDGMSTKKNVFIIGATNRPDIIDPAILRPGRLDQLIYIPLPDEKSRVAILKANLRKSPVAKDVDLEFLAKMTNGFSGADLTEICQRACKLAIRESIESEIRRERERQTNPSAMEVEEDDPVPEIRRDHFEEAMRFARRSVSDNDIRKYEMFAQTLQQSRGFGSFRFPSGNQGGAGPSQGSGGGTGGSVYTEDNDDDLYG
Protocol: (§2) Compounds were tested for their ability to inhibit the ATPase activity of purified wild type murine p97 and T532C-Cdc48, a mutant of yeast Cdc48 in which the residue analogous to cysteine 522, threonine 532, was converted to cysteine.

[6] = test system: LNCaP; assay: MTT cell growth assay, LNCaP; type: cell-based; conditions: Homo sapiens, 48 or 72 h, read-out: Cell line inhibition of growth GI50 LNCaP
Protocol: as §1

[7] = test system: RL; assay: MTT cell growth assay, RL; type: cell-based; conditions: Homo sapiens, 48 or 72 h, read-out: Cell line inhibition of growth GI50 RL
Protocol: as §1

[8] = test system: PC3; assay: MTT cell growth assay, PC3; type: cell-based; conditions: Homo sapiens, PC-3, 48 or 72 h, read-out: Cell line inhibition of growth GI50 PC3
Protocol: as §1

[9] = test system: MCF7; assay: MTT cell growth assay, MCF7; type: cell-based; conditions: Homo sapiens, 48 or 72 h, read-out: Cell line inhibition of growth GI50 MCF7
Protocol: as §1

[10] = test system: HeLa; assay: MTT cell growth assay, HeLa; type: cell-based; conditions: Homo sapiens, 48 or 72 h, read-out: Cell line inhibition of growth GI50 HeLa
Protocol: as §1

[11] = test system: HCT116 p53−/−; assay: MTT cell growth assay, HCT116 p53−/−; type: cell-based; conditions: Homo sapiens, HCT-116, 48 or 72 h, read-out: Cell line inhibition of growth GI50 HCT116 p53−/−
Protocol: as §1

[12] = test system: DU145; assay: MTT cell growth assay, DU145; type: cell-based; conditions: Homo sapiens, DU-145, 48 or 72 h, read-out: Cell line inhibition of growth GI50 DU145
Protocol: as §1

[13] = test system: RPMI8226; assay: MTT cell growth assay, RPMI8226; type: cell-based; conditions: Homo sapiens, RPMI-8226, 48 or 72 h, read-out: Cell line inhibition of growth GI50 RPMI8226
Protocol: as §1

[14] = test system: CCRF-CEM; assay: MTT cell growth assay, CCRF-CEM; type: cell-based; conditions: Homo sapiens, 48 or 72 h, read-out: Cell line inhibition of growth GI50 CCRF-CEM
Protocol: as §1

[15] = test system: MDAMB-231; assay: MTT cell growth assay, MDAMB-231; type: cell-based; conditions: Homo sapiens, MDA-MB-231, 48 or 72 h, read-out: Cell line inhibition of growth GI50 MDAMB-231
Protocol: as §1

[16] = test system: 13 different cell lines; assay: MTT cell growth assay, summary across 13 different cell lines; type: cell-based; conditions: vs compound 2, 13 cell lines
Protocol: as §1
Data for the assay with MCF-7 cells and HeLa cells is shown in FIG. 21 and FIG. 22, respectively. […] Thus, compound 2 blocks p97-dependent processes in cells and also blocks the proliferation of cancer cell lines, illustrating its potential utility as an anti-proliferative drug to treat cancer.

[17] = test system: HeLa cells; assay: Accumulation of high molecular weight ubiquitin conjugates (anti-ubiquitin immunoblot), HeLa cells; type: cell-based; conditions: 1 h at 37° C.
Excerpt: (§3) To evaluate whether compound 2 can target p97 activity in cells, we sought to determine whether this compound induces accumulation of high molecular weight ubiquitin conjugates, since it is known that RNAi-mediated knockdown of p97 in mammalian cells has this effect (Wojcik, C. et al. J. Cell Sci. (2004) 117, 281-292). As a positive control for this experiment, the proteasome inhibitor MG132 was used. […] The cells were then harvested, lysed, and centrifuged to generate soluble and insoluble fractions. These fractions were then immunoblotted with anti-ubiquitin antibodies to detect accumulation of high molecular weight conjugates. Blots were also probed with anti-PSTAIRE antibodies as a loading control. […] This effect is particularly pronounced in the insoluble fraction.
(§4) To evaluate whether compound 8 can target p97 activity in cells, it was determined whether this compound induces accumulation of high molecular weight ubiquitin conjugates, since it is known that RNAi-mediated knockdown of p97 in mammalian cells has this effect (Wojcik, C. et al. J. Cell Sci. (2004) 117, 281-292). The proteasome inhibitor bortezomib (velcade) was employed as a positive control for this experiment. HeLa (FIG. 25) or RPMI8226 (FIG. 26) cells were treated with Velcade, compound 8, or a combination thereof for 1 h at 37° C. The cells were then harvested and cell lysates were immunoblotted with anti-ubiquitin antibodies to detect accumulation of high molecular weight conjugates. Blots were also probed with anti-PSTAIRE antibodies as a loading control.

[18] = test system: 293; assay: MTT cell growth assay, 293; type: cell-based; conditions: Homo sapiens, HEK293, 48 or 72 h, read-out: Cell line inhibition of growth GI50 293
Protocol: as §1

[19] = test system: RPMI8226 cells; assay: Accumulation of high molecular weight ubiquitin conjugates (anti-ubiquitin immunoblot), RPMI8226 cells; type: cell-based; conditions: 1 h at 37° C.
Excerpt: as §3, §4

[20] = test system: Ub-G76V-GFP/HeLa cells; assay: Degradation of pre-accumulated Ub-G76V-GFP (cycloheximide chase after MG132 washout); type: cell-based; conditions: up to 10 μM
Protocol: To evaluate this possibility, an assay was developed to determine the rate of degradation of pre-accumulated Ub-G76V-GFP molecules. […] Cells were then washed with PBS three times remove the MG132. Cells were then refreshed by adding DMEM containing cycloheximide (50 μg/mL; to block production of more Ub-G76V-GFP) and test compounds (0˜10 μM) were added into cells. Eight 96-well plates were prepared and one of the plates was imaged at 25, 50, 70, 100, 110, 125, 145, or 170 min after washing with PBS three times. After washing out MG132, degradation of pre-accumulated Ub-G76V-GFP appears to follow pseudo-first order reaction. Rate constant (K; 1/min) can be determined from the slope of plotting Ln (Fold Accumulation) versus Time (min) (see FIG. 17 and FIG. 18).
Ub-G76V-GFP/HeLa cells were treated with MG132 (2 μM) for 1 h and washed with PBS three times. DMEM containing cycloheximide (50 μg/mL) and compound 8 (0-10 μM) was added into cells. Eight 96-well plates were prepared and one of the plates was imaged at 25, 50, 70, 100, 110, 125, 145, or 170 min after washing with PBS three times.

[21] = molecular target: T532C-Cdc48 (Saccharomyces cerevisiae, UniProt P25694, T532C); assay: In vitro ATP hydrolysis (malachite green ATPase assay), T532C-Cdc48; type: biochemical, yeast
Chain of T532C-Cdc48 (P25694 whole entry T532C): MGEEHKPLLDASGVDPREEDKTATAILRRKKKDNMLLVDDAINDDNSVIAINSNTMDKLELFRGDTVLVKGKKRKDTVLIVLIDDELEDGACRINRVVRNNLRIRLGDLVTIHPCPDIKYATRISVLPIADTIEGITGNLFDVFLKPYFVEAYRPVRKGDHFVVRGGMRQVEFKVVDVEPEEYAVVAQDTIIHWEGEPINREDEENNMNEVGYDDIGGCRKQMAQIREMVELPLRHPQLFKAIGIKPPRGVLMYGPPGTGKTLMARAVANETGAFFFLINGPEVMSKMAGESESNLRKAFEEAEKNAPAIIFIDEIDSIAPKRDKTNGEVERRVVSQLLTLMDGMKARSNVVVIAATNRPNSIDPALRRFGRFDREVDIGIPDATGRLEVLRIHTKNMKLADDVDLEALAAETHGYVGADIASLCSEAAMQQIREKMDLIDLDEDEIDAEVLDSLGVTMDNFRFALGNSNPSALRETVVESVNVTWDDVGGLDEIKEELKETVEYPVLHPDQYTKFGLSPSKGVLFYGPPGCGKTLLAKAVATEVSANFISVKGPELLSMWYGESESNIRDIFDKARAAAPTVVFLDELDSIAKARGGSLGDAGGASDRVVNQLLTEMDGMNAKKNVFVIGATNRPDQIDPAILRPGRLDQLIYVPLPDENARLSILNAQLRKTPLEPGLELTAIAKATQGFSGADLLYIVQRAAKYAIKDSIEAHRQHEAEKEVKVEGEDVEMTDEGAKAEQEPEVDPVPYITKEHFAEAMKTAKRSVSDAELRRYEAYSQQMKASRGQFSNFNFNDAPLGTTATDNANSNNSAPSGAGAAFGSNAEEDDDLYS
Protocol: as §2
To determine whether cysteine 522 is necessary for inhibition of p97 by compound 2, a mutant of p97 was constructed in which cysteine 522 was converted to either alanine (C522A-mp97) or threonine (C522T-mp97). The IC50 values of compound 2 were measured the against various enzymes during a 20-minute preincubation (see Table 2). Mutation of cysteine 522 in p97 to either alanine or threonine decreased sensitivity to compound 2 by greater than 100-fold. On the other hand, yeast Cdc48, which normally is quite resistant to compound 2, became nearly 30-fold more sensitive to the compound upon introduction of a cysteine in place of threonine 532.

With `CC(C)C[C@H](NC(=O)[C@H](Cc1ccccc1)NC(=O)c1cnccn1)B(O)O` [Velcade, reference compound] as the compound, how does the GI50 [1] read?
The GI50 was 0.2 ± 0.07 µM.

What about the GI50 ([2]; Homo sapiens, MRC5, 48 h at 37° C., CellTiter-Glo, read-out: Cell line inhibition of growth GI50 MRC5-SV40) of the same compound?
Its GI50 is 0.1 ± 0.01 µM.

And the “greater sensitivity of SV40-transformed cells than WT cell line” value ([2]; MRC5-SV40 vs MRC5-WT GI50)?
Its value is 2 fold.

With `CC(C)(C)n1nc(-c2ccc3ccccc3c2)c2c(N)ncnc21` [Compound 5] as the compound, how does the GI50 [3] read?
The GI50 was 0.6 ± 0.2 µM.

And the GI50 [4]?
Its GI50 is 4.3 ± 1.8 µM.

What about the IC50 [5] of the same compound?
The IC50 was over 100 µM.

What about the GI50 [6] of the same compound?
Its GI50 is 7.6 ± 1.7 µM.

And the GI50 [7]?
The GI50 was 0.7 ± 0.2 µM.

And the GI50 [8]?
Its GI50 is 5.9 ± 0.5 µM.

And the GI50 [9]?
Its GI50 is 2.3 ± 0.4 µM.

What about the GI50 [10] of the same compound?
Its GI50 is 1 ± 0.3 µM.

And the GI50 [11]?
Its GI50 is 12 ± 3 µM.

What about the GI50 [12] of the same compound?
Its GI50 is 3.5 ± 0.6 µM.

And the GI50 [13]?
Its GI50 is 9.8 ± 1.8 µM.

And the GI50 [14]?
The GI50 was 3.9 ± 1.3 µM.

And the GI50 [15]?
Its GI50 is 10 ± 1.8 µM.

Which results are given for `CC(C)(C)n1nc(-c2ccccc2)c2c(N)ncnc21` [Compound 1]?
GI50 [3]: 7.4 ± 4.7 µM; GI50 higher than that of compound 2 across the same cell lines [16]: 3 to 18 fold; GI50 [4]: 10 ± 2 µM; IC50 [5]: > 100 µM; GI50 [6]: 38 ± 8 µM; accumulation of high molecular weight ubiquitin conjugates, HeLa cells [17]: not; GI50 [7]: 21 ± 10 µM; GI50 [8]: 11 ± 1 µM; GI50 [9]: 4 ± 2 µM; GI50 [18]: 92 ± 14 µM; GI50 [10]: 2 ± 1 µM; accumulation of high molecular weight ubiquitin conjugates, RPMI8226 cells [19]: not; GI50 [11]: 12 ± 4 µM; GI50 [12]: 18 ± 4 µM; GI50 [13]: 1.1 ± 0.7 µM; effect on the decay of Ub-G76V-GFP [20]: no effect; GI50 [14]: 15 ± 5 µM; GI50 [15]: 19 ± 8 µM

Which GI50 [3] does the source give for `C=CC(=O)N(C(=O)C=C)c1ncnc2c1c(-c1ccc3ccccc3c1)nn2C(C)(C)C` [Compound 7] here?
Its GI50 is 1.2 ± 0.5 µM.

What about the GI50 [4] of the same compound?
Its GI50 is 5.5 ± 1.4 µM.

And the IC50 [5]?
The IC50 was 1.3 ± 0.7 µM.

And the GI50 [6]?
The GI50 was 11 ± 4 µM.

What about the GI50 [7] of the same compound?
The GI50 was 1.4 ± 0.7 µM.

What about the GI50 [8] of the same compound?
Its GI50 is 6.2 ± 1.2 µM.

And the GI50 [9]?
Its GI50 is 3.6 ± 1 µM.

What about the IC50 [21] of the same compound?
The IC50 was 22 ± 11 µM.

And the GI50 [10]?
Its GI50 is 1.8 ± 0.6 µM.

What about the GI50 [11] of the same compound?
The GI50 was 13 ± 4 µM.

And the GI50 [12]?
Its GI50 is 4.9 ± 0.6 µM.

And the GI50 [13]?
Its GI50 is 3.4 ± 1.7 µM.

And the GI50 [14]?
The GI50 was 2.4 ± 1.1 µM.

What about the GI50 [15] of the same compound?
Its GI50 is 21 ± 11 µM.
